Assay results from article PMC11945486, “TAS1R2/TAS1R3 Single-Nucleotide Polymorphisms Affect Sweet Taste Receptor Activation by Sweeteners: The SWEET Project” (Nutrients, 2025).
Like-named read-outs stand apart in the source and are kept apart here. No end group written: not given here.

Target: T1, human TAS1R2-WT/TAS1R3-A5T (Homo sapiens, UniProt Q7RTX0+Q8TE23, A5T)
T1 construct: expressed in transfected cells; host or cells: HEK293T stably expressing Gα16gust44
T1 sequence (Q8TE23 20-839): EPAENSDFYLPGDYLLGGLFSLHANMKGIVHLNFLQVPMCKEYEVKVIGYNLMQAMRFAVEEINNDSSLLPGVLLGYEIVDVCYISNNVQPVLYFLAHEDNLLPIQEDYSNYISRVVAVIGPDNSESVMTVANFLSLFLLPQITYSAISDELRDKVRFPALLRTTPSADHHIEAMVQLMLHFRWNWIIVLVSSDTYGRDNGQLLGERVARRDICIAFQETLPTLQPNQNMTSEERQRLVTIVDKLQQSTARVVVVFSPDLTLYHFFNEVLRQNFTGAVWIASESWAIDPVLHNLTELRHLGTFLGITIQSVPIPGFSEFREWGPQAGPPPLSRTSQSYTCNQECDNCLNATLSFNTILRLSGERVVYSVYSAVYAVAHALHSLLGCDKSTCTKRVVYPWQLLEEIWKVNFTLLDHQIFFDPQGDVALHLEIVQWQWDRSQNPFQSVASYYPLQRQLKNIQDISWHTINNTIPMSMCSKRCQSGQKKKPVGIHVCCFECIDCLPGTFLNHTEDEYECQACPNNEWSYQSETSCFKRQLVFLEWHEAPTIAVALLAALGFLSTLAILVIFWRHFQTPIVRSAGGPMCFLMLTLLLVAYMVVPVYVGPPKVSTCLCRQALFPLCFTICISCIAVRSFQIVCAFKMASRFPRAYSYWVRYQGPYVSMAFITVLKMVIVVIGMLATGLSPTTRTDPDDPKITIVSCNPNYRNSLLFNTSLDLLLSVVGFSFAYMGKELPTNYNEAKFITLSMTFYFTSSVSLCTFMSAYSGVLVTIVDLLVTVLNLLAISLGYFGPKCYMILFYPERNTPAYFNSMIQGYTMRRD
T1 sequence (Q7RTX0 21-852): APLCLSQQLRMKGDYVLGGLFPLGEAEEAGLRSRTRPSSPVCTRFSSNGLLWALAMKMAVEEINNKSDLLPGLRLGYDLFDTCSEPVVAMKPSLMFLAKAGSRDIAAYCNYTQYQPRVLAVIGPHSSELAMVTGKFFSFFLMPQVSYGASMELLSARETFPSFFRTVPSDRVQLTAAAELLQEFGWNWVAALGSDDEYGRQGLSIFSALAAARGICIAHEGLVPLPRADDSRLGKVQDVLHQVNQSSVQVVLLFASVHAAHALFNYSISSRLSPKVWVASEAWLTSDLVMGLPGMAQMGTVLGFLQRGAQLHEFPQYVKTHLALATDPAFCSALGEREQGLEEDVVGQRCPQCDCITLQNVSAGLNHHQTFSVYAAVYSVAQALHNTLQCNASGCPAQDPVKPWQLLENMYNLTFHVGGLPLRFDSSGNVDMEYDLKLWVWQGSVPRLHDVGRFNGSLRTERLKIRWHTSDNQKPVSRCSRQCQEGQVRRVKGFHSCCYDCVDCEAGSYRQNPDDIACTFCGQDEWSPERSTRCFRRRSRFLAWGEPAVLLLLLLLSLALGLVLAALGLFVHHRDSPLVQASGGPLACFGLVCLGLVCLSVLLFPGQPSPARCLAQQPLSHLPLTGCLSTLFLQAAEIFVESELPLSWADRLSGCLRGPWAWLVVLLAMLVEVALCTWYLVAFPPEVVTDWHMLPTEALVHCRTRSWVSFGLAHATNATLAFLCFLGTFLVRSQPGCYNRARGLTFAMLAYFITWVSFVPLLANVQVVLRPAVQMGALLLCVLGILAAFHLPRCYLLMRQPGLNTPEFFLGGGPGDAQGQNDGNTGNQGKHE
Assay: Calcium mobilisation assay, TAS1R2-WT with TAS1R3 variant A5T
Format: cell-based
Conditions: for Max ΔF/F0: maximal signal amplitude
Text: The coding sequences for TAS1R2 and TAS1R3 were commercially synthesised, and the human codon was optimised for expression in human cells. The coding sequences of human TAS1R2 and TAS1R3 were subcloned and inserted into the mammalian expression vectors pcDNA6/myc-HisA and pcDNA4/myc-HisA (Invitrogen; Thermo Fisher Scientific; Illkirch, France) between the EcoRI and NotI restriction sites, generating the plasmids pcDNA6-TAS1R2 and pcDNA4-TAS1R3, respectively. To increase protein expression in mammalian cells, an upstream start codon was used, which was a sequence called MAX, corresponding to the QBI SP163 element also described in pcDNA4-HisMax (Invitrogen; Thermo Fisher Scientific; Illkirch, France). To measure the expression level of the receptor by immunohistochemistry, we used the FLAG sequence ([…]) in the C-terminal position, which encodes the FLAG tag epitope. SNP variants of TAS1R2 and TAS1R3 were constructed based on […], respectively, using site-directed mutagenesis (Genewiz; Leipzig, Germany).
The HEK293T cells were kindly provided by Jay P. Slack (Givaudan Flavors Corporation; Cincinnati, OH, USA). HEK293T cells stably transfected with Gα16gust44 [43, 67] were seeded in poly-D-lysine-coated clear-bottom black 96-well plates (0.35 × 10^5 cells/well) in high-glucose DMEM supplemented with 2 mM GlutaMAX, 10% dialysed foetal bovine serum with penicillin/streptomycin and G418 (400 μg/mL) at 37 °C and 6.3% CO2 in a humidified atmosphere as previously reported. […] As a negative control, HEK293T cells were mock-transfected with the empty expression vector. After a further 24 h of incubation, the HEK293T cells were washed with C1 buffer (130 mM NaCl, 5 mM KCl, 10 mM HEPES pH 7.4 and 2 mM CaCl2). The 96-well plates containing the cells were then stimulated with sweet-tasting compounds. […] Different concentration ranges were tested depending on the sweet compound injected. The Ca^2+ changes were expressed as fractional changes in fluorescent light intensity: ΔF/F = (F − F0)/F0, where F was the fluorescent light intensity at each point, and F0 was the value of emitted fluorescent light prior to stimulus application. To calculate dose–response relationships, the changes in fluorescence upon stimulus application were averaged, mock-subtracted and baseline-corrected. The dose–response data obtained were adjusted using a 4-parameter logistic equation. The half-maximal effective concentrations (EC50 values) and maximal signal amplitudes were calculated using SigmaPlot software (version 15.0) (Systat Software; San Jose, CA, USA).
For in vitro calcium mobilisation assay performed on hTAS1R2-SNPs, hTAS1R3-SNPs and mTAS1R3-I60T, 6 to 7 concentrations were tested for each sweet compound, plus buffer alone. All concentration–receptor combinations were measured in duplicate, and each experiment was repeated at least 4 times (8 wells/concentration). Results were expressed for each concentration as ΔF/F mean ± SEM and represented as dose–response curves.

Row | Compound | R1 = Variant EC50/WT EC50 | Max ΔF/F0 | EC50 (read-out: EC50) [µM] | EC50 (brazzein) [µg/mL]
1 | O=S(=O)(O)NC1CCCCC1 [Cyclamate, cyclamate] |  |  | 1790 ± 35 | 
2 | C[C@H](CC[C@@H](O[C@@H]1O[C@H](CO[C@@H]2O[C@H](CO)[C@@H](O)[C@H](O)[C@H]2O)[C@@H](O)[C@H](O)[C@H]1O[C@@H]1O[C@H](CO)[C@@H](O)[C@H](O)[C@H]1O)C(C)(C)O)[C@H]1CC[C@@]2(C)[C@@H]3CC=C4[C@@H](CC[C@H](O[C@@H]5O[C@H](CO[C@@H]6O[C@H](CO)[C@@H](O)[C@H](O)[C@H]6O)[C@@H](O)[C@H](O)[C@H]5O)C4(C)C)[C@]3(C)[C@H](O)C[C@]12C [Mogroside V, mogroside V] | 1.0 | 0.97 ± 0.01 | 31.3 ± 1 | 
3 | C=C(C)[C@@H]1CC=C(/C=N/O)CC1 [Perillartine, perillartine] | 1.0 | 1.42 ± 0.23 | 13.2 ± 6.4 | 
4 | brazzein (QDKCKKVYENYPVSKCQLANQCNYDCKLDKHARSGECFYDEKRNLQCICDYCEY; ends and bridges not checked; cysteine pairing not given here; UniProt P56552 1-54, looked up) [sweet-tasting protein obtained by recombinant production using the yeast Pichia pastoris] | 1.0 | 1.04 ± 0.04 |  | 108.3 ± 11.5

Results, then the compound that gave them:

Row | R1 = Variant EC50/WT EC50 | Max ΔF/F0 | EC50 (read-out: EC50) [µM] | EC50 (brazzein) [µg/mL] | Compound
5 | 1.4 | 0.31 ± 0.01 | 852 ± 34 |  | CC1=CC(=O)NS(=O)(=O)O1 [Acesulfame K, acesulfame K]
6 | 1.5 | 1.24 ± 0.01 | 76.5 ± 13.1 |  | COc1ccc(CCC(=O)c2c(O)cc(O[C@@H]3O[C@H](CO)[C@@H](O)[C@H](O)[C@H]3O[C@@H]3O[C@@H](C)[C@H](O)[C@@H](O)[C@H]3O)cc2O)cc1O [NHDC, neohesperidin dihydrochalcone]
7 | 1.0 | 0.65 ± 0.01 | 1.18 ± 0.05 |  | COC(=O)[C@H](Cc1ccccc1)NC(=O)[C@H](CC(=O)O)NCCC(C)(C)C [Neotame]
8 | 0.7 | 1.06 ± 0.02 | 30.2 ± 1.5 |  | C=C1C[C@@]23CC[C@H]4[C@@](C)(CCC[C@@]4(C)C(=O)O[C@@H]4O[C@H](CO)[C@@H](O)[C@H](O[C@@H]5O[C@H](CO)[C@@H](O)[C@H](O)[C@H]5O)[C@H]4O[C@@H]4O[C@H](CO)[C@@H](O)[C@H](O)[C@H]4O)[C@@H]2CC[C@]1(O[C@@H]1O[C@H](CO)[C@@H](O)[C@H](O[C@@H]2O[C@H](CO)[C@@H](O)[C@H](O)[C@H]2O)[C@H]1O[C@@H]1O[C@H](CO)[C@@H](O)[C@H](O)[C@H]1O)C3 [Rebaudioside M, rebaudioside M]
9 | 1.2 | 0.63 ± 0.01 | 135 ± 5 |  | OC[C@H]1O[C@H](O[C@]2(CCl)O[C@H](CCl)[C@@H](O)[C@@H]2O)[C@H](O)[C@@H](O)[C@H]1Cl [Sucralose]
10 | 0.9 | 0.73 ± 0.04 | 9.7 ± 0.8 |  | thaumatin
